Measurements taken from US20210330611A1, “THERAPY FOR NEUROLOGICAL DISEASES/DISORDERS” (priority 2020, published 2021).
Where a name gives a salt, the structure may show the parent alone. Read-outs that look alike come from different tables or passages of the source.

Legend:
[1] = test system: fibrin-induced microglia activation; assay: Image-based assay of fibrin-induced microglia activation (HTS and dose response); assay type: cell-based, rat; settings: for inhibition at 10 µM: Rattus norvegicus, Microglia, read-out: Fibrin % inhibition
[2] = test system: LPS-induced microglia activation; assay: Image-based assay of LPS-induced microglia activation (HTS and dose response); assay type: cell-based, rat; settings: for inhibition at 10 µM: Rattus norvegicus, Microglia, read-out: LPS % inhibition
[3] = test system: fibrin- and LPS-induced microglia activation; assay: cells; assay type: cell-based, rat
primary rat microglia [4] = assay: Cell toxicity (dead cells, size <150 μm2) in LPS assay
primary rat microglia [5] = assay: Cell toxicity (dead cells, size <150 μm2) in coated fibrin (cFib) assay;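 note: share of dead cells sized under 150 µm2 at 10 µM in fibrin-stimulated microglia HTS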
[6] = primary microglia HTS, fibrin stimulation, increased cell size (>800 μm^2) as marker of activation
[7] = 48 h, primary microglia HTS, LPS stimulation, increased cell size (>800 μm^2) as marker of activation
[8] = quadrant by fibrin and LPS inhibition in HTS of 1907 compounds
[9] = primary microglia HTS, LPS stimulation, decreased size (<150 μm^2) as marker of toxicity
[10] = primary microglia HTS, fibrin stimulation, decreased size (<150 μm^2) as marker of toxicity
[11] = primary microglia HTS, fibrin stimulation, activation = cell size >800 μm2
[12] = 48 h, primary microglia HTS, LPS stimulation, activation = cell size >800 μm2
[13] = primary microglia HTS, LPS stimulation, toxicity = cell size <150 μm2
[14] = primary microglia HTS, fibrin stimulation, toxicity = cell size <150 μm2
[15] = primary microglia HTS, 10 μM, fibrin-stimulated, cell size >800 μm^2 as marker of activation
[16] = primary microglia HTS, 10 μM, LPS-stimulated, cell size >800 μm^2 as marker of activation
[17] = HTS of 1907 compounds, quadrant by fibrin and LPS inhibition
[18] = primary microglia HTS, 10 μM, LPS assay, cell size <150 μm^2 as marker of toxicity
[19] = primary microglia HTS, 10 μM, fibrin assay, cell size <150 μm^2 as marker of toxicity
[20] = primary HTS, 10 μM, fibrin-stimulated primary microglia
[21] = primary HTS, 10 μM, LPS-stimulated primary microglia
[22] = primary HTS, 10 μM, LPS assay, dead cells size <150 μm2
[23] = primary HTS, 10 μM, fibrin assay, dead cells size <150 μm2

| SMILES | Quadrant (FIG. 5b) [3, 8] | LPS % cell toxicity (primary rat microglia [4]; [9]) | Fibrin % cell toxicity (primary rat microglia [5]; [10]) | inhibition at 10 µM [1, 15] | inhibition at 10 µM [2, 16] | Quadrant (FIG. 5b) [3, 17] | LPS % cell toxicity (primary rat microglia [4]; [18]) | Fibrin % cell toxicity (primary rat microglia [5]; [19]) | other results |
| --- | --- | --- | --- | --- | --- | --- | --- | --- | --- |
| COc1ccccc1OCC(O)COC(N)=O (centres unmarked) [Methocarbamol] | Q4 | 0% | 0% |  |  |  |  |  | inhibition at 10 µM [1, 6]: 4%; inhibition at 10 µM [2, 7]: 10% |
| COc1ccccc1OCC(O)CO (centres unmarked) [Guaifenesin] | Q4 |  |  |  |  |  |  |  | inhibition at 10 µM [1, 11]: -15%; inhibition at 10 µM [2, 12]: 11%; LPS % cell toxicity (primary rat microglia [4]; [13]): 0%; Fibrin % cell toxicity (primary rat microglia [5]; [14]): 0% |
| Cc1nnc(NS(=O)(=O)c2ccc(N)cc2)s1 [Sulfamethizole] |  |  |  | -3% | 16% | Q4 | 0% | 1% |  |
| C[C@@H]1CN([C@H]2CC[C@](C#N)(c3ccc(F)cc3)CC2)CC[C@]1(C(=O)O)c1ccccc1 [Levocabastine] | Q4 |  |  |  |  |  |  |  | inhibition at 10 µM [1, 11]: 7%; inhibition at 10 µM [2, 12]: 4%; LPS % cell toxicity (primary rat microglia [4]; [13]): 0%; Fibrin % cell toxicity (primary rat microglia [5]; [14]): 1% |
| COc1ccc(C(=O)NCc2ccc(OCCN(C)C)cc2)cc1OC [Itopride, Itopride Hydrochloride] | Q4 |  |  |  |  |  |  |  | Fibrin % inhibition [1, 11]: −49%; LPS % inhibition ([2]; primary microglia HTS, LPS stimulation, activation = cell size >800 μm2): 25%; LPS % cell toxicity (primary rat microglia [4]; [13]): 0%; Fibrin % cell toxicity (primary rat microglia [5]; [14]): 0% |
| O=C(O)[C@H]1/C(=C/CO)O[C@@H]2CC(=O)N21 [Clavulanate] |  |  |  |  |  |  |  |  | inhibition at 10 µM [1, 20]: -16%; inhibition at 10 µM [2, 21]: 5%; Quadrant (FIG. 5b) ([3]; primary HTS, 10 μM): Q4; LPS % cell toxicity (primary rat microglia [4]; [22]): 0%; Fibrin % cell toxicity (primary rat microglia [5]; [23]): 0% |
| CCCc1nc2c(C)cc(-c3nc4ccccc4n3C)cc2n1Cc1ccc(-c2ccccc2C(=O)O)cc1 [Telmisartan] |  |  |  | -24% | -2% | Q4 | 0% | 0% |  |
| CSc1ccc2c(c1)C(N1CCN(C)CC1)Cc1ccccc1S2 (centres unmarked) | Q4 | 0% | 1% |  |  |  |  |  | Fibrin % inhibition [1, 6]: 11%; LPS % inhibition ([2]; primary microglia HTS, LPS stimulation, increased cell size (>800 μm^2) as marker of activation): −5% |
| COc1cc(O)c(C(=O)c2ccccc2)cc1S(=O)(=O)O [Sulisobenzone] |  |  |  | -19% | -2% | Q4 | 0% | 0% |  |
| NC(=O)C[S+]([O-])C(c1ccccc1)c1ccccc1 (centres unmarked) [Modafinil] | Q4 | 0% | 1% |  |  |  |  |  | inhibition at 10 µM [1, 6]: -5%; inhibition at 10 µM [2, 7]: 25% |
| Cc1nc2ccccc2n1Cc1ccc(Cl)cc1 [Chlormidazole] | Q1 | 2% | 1% |  |  |  |  |  | inhibition at 10 µM [1, 6]: 38%; inhibition at 10 µM [2, 7]: 70% |
| NCc1ccccc1CC(=O)N[C@@H]1C(=O)N2C(C(=O)O)=C(CSc3nnnn3CC(=O)O)CS[C@H]12 [Ceforanide] |  |  |  |  |  |  |  |  | inhibition at 10 µM [1, 20]: -2%; inhibition at 10 µM [2, 21]: 14%; Quadrant (FIG. 5b) ([3]; primary HTS, 10 μM): Q4; LPS % cell toxicity (primary rat microglia [4]; [22]): 1%; Fibrin % cell toxicity (primary rat microglia [5]; [23]): 1% |
| CC(C)OC(=O)CCC/C=C\C[C@@H]1[C@@H](/C=C/[C@@H](O)COc2cccc(C(F)(F)F)c2)[C@H](O)C[C@@H]1O [Travoprost] |  |  |  | 4% | 15% | Q4 | 0% | 1% |  |
